What is called EC50 is the concentration that produces a half-maximal response.

The text below walks through data of US11524940B1, “Inhibitors of cysteine proteases and methods of use thereof” (priority 2020, dated 2022).

In one experiment the target is 229E Mpro (Human coronavirus 229E (HCoV-229E), UniProt P0C6X1). Put plainly: 229E Mpro activity. It counts as biochemical. The conditions noted are these: 229E Mpro EC50.
Sequence of 229E Mpro (P0C6X1 2966-3267 limits assumed): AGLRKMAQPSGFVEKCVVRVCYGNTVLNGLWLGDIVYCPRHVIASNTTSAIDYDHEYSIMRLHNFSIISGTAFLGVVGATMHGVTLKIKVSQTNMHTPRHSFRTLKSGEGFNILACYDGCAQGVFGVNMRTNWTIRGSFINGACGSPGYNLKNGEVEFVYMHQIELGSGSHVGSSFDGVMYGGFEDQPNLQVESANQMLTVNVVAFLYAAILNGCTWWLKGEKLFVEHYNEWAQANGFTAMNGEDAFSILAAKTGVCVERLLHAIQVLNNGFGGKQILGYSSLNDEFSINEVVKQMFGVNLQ
Experimental: Compounds are assayed using standard methods to assess compound activity and IC50. […] The assay buffer contains 20 mM of Tris-HCl (pH 7.3), 100 mM of NaCl, 1 mM of EDTA, 5mM of TCEP and 0.1% BSA.
The compound `COc1cccc2[nH]c(C(=O)N[C@H](CC(C)C)C(=O)N[C@@H](CC3CCNC3=O)C(=O)CO)cc12` (stereo partly drawn) [Compound 740, N-[(1R)-1-[[(1S)-3-hydroxy-2-oxo-1-[[(3S)-2-oxopyrrolidin-3-yl]methyl]propyl]carbamoyl]-3-methyl-butyl]-4-methoxy-1H-indole-2-carboxamide] gave an EC50 of 10 to 30 µM.

The experiment is the same for the next values; noted with them: read-out: 229E Mpro EC50.
For `COc1ccc2[nH]c(C(=O)N[C@@H](CC3CC3)C(=O)N[C@H](C#N)C[C@@H]3CCCNC3=O)cc2c1` [Compound 619, N-[(1S)-2-[[(1S)-1-cyano-2-[(3S)-2-oxo-3-piperidyl]ethyl]amino]-1-(cyclopropylmethyl)-2-oxo-ethyl]-5-methoxy-1H-indole-2-carboxamide], the EC50 was < 2 µM.
On the same count and under the same terms, to `COc1ccc2[nH]c(C(=O)N[C@@H](CC3CC3)C(=O)N[C@H](C#N)C[C@@H]3CCCNC3=O)cc2n1` [Compound 621, N-[(1S)-2-[[(1S)-1-cyano-2-[(3S)-2-oxo-3-piperidyl]ethyl]amino]-1-(cyclopropylmethyl)-2-oxo-ethyl]-5-methoxy-1H-pyrrolo[3,2-b]pyridine-2-carboxamide] belongs < 2 µM; to `COc1nccc2[nH]c(C(=O)N[C@@H](CC3CC3)C(=O)N[C@H](C#N)C[C@@H]3CCCNC3=O)cc12` [Compound 623, N-[(1S)-2-[[(1S)-1-cyano-2-[(3S)-2-oxo-3-piperidyl]ethyl]amino]-1-(cyclopropylmethyl)-2-oxo-ethyl]-4-methoxy-1H-pyrrolo[3,2-c]pyridine-2-carboxamide], > 30 µM; to `N#C[C@H](C[C@@H]1CCCNC1=O)NC(=O)[C@H](CC1CC1)NC(=O)c1cc2cnccc2[nH]1` [Compound 625, N-((S)-1-(((S)-1-cyano-2-((S)-2-oxopiperidin-3-yl)ethyl)amino)-3-cyclopropyl-1-oxopropan-2-yl)-1H-pyrrolo[3,2-c]pyridine-2-carboxamide], < 2 µM.
For the compound `N#C[C@H](C[C@@H]1CCCNC1=O)NC(=O)[C@H](CC1CC1)NC(=O)c1cc2cc(Cl)ccc2[nH]1` [Compound 633, 5-chloro-N-[(1S)-2-[[(1S)-1-cyano-2-[(3S)-2-oxo-3-piperidyl]ethyl]amino]-1-(cyclopropylmethyl)-2-oxo-ethyl]-1H-indole-2-carboxamide], the EC50 was < 2 µM.
With `N#C[C@H](C[C@@H]1CCCNC1=O)NC(=O)[C@@H](CC1CC1)NC(=O)c1cc2cccc(Cl)c2[nH]1` [Compound 639A, 7-Chloro-N-[(1R)-2-[[(1S)-1-cyano-2-[(3S)-2-oxo-3-piperidyl]ethyl]amino]-1-(cyclopropylmethyl)-2-oxo-ethyl]-1H-indole-2-carboxamide], the EC50 was < 2 µM.
In the case of `N#C[C@H](C[C@@H]1CCNC1=O)NC(=O)[C@H](CC1CC1)NC(=O)c1cc2c(Cl)cccc2[nH]1` [Compound 647, 4-chloro-N-[(1S)-2-[[(1S)-1-cyano-2-[(3S)-2-oxopyrrolidin-3-yl]ethyl]amino]-1-(cyclopropylmethyl)-2-oxo-ethyl]-1H-indole-2-carboxamide], the EC50 was < 2 µM.
The same measure, in the same setting: the value for `COc1cccc2[nH]c(C(=O)N3C[C@H](C(C)(C)C)C[C@H]3C(=O)N[C@H](C#N)C[C@@H]3CCNC3=O)cc12` [Compound 655, (2S,4S)-4-(tert-butyl)-N-((S)-1-cyano-2-((S)-2-oxopyrrolidin-3-yl)ethyl)-1-(4-methoxy-1H-indole-2-carbonyl)pyrrolidine-2-carboxamide] was 10 to 30 µM; that for `COc1cccc2[nH]c(C(=O)N[C@H](CN[C@H](C#N)C[C@@H]3CCNC3=O)CC(C)(C)C)cc12` [Compound 659, N-[(1S)-1-[[[(1S)-1-cyano-2-[(3S)-2-oxopyrrolidin-3-yl]ethyl]amino]methyl]-3,3-dimethyl-butyl]-4-methoxy-1H-indole-2-carboxamide] was > 30 µM; that for `COc1cccc2[nH]c(C(=O)N[C@@H](CC(C)(C)F)C(=O)N[C@H](C#N)C[C@@H]3CCCNC3=O)cc12` [Compound 667, N-[(1S)-1-[[(1S)-1-cyano-2-[(3S)-2-oxo-3-piperidyl]ethyl]carbamoyl]-3-fluoro-3-methyl-butyl]-4-methoxy-1H-indole-2-carboxamide] was < 2 µM.
For `N#C[C@H](C[C@@H]1CCCNC1=O)NC(=O)[C@H](CC1CC1)NC(=O)c1cc2c(Cl)cncc2[nH]1` [Compound 669, 4-chloro-N-((S)-1-(((S)-1-cyano-2-((S)-2-oxopiperidin-3-yl)ethyl)amino)-3-cyclopropyl-1-oxopropan-2-yl)-1H-pyrrolo[2,3-c]pyridine-2-carboxamide], the EC50 is < 2 µM.
Consider `N#C[C@H](C[C@@H]1CCNC1=O)NC(=O)[C@H](CC1CC1)NC(=O)c1cc2c(Cl)ccc(Cl)c2[nH]1` [Compound 691, 4,7-dichloro-N-[(1S)-2-[[(1S)-1-cyano-2-[(3S)-2-oxopyrrolidin-3-yl]ethyl]amino]-1-(cyclopropylmethyl)-2-oxo-ethyl]-1H-indole-2-carboxamide], for which the EC50 is < 2 µM.
For the compound `COc1cc(Cl)c2[nH]c(C(=O)N[C@@H](CC3CC3)C(=O)N[C@H](C#N)C[C@@H]3CCNC3=O)cc2c1` [Compound 695, 7-chloro-N-[(1S)-2-[[(1S)-1-cyano-2-[(3S)-2-oxopyrrolidin-3-yl]ethyl]amino]-1-(cyclopropylmethyl)-2-oxo-ethyl]-5-methoxy-1H-indole-2-carboxamide], the EC50 was < 2 µM.
On to `N#C[C@H](C[C@@H]1CCCNC1=O)NC(=O)[C@H](CC1CC1)NC(=O)c1cc2ccc(Cl)c(Cl)c2[nH]1` [Compound 727, 6,7-dichloro-N-[(1S)-2-[[(1S)-1-cyano-2-[(3S)-2-oxo-3-piperidyl]ethyl]amino]-1-(cyclopropylmethyl)-2-oxo-ethyl]-1H-indole-2-carboxamide], for which the EC50 is < 2 µM.
`COc1cccc2[nH]c(C(=O)N[C@@H](CC(C)C)C(=O)N[C@@H](C[C@@H]3CCNC3=O)C(=O)CO)cc12` [Compound 741, N-[(1S)-1-[[(1S)-3-hydroxy-2-oxo-1-[[(3S)-2-oxopyrrolidin-3-yl]methyl]propyl]carbamoyl]-3-methyl-butyl]-4-methoxy-1H-indole-2-carboxamide]: the EC50 is < 2 µM.
Same read-out and setting: the value for `CC(C)(C)C[C@H](NC(=O)c1cc2c(Cl)cccc2[nH]1)C(=O)N[C@H](C#N)C[C@@H]1CCCNC1=O` [Compound 793, 4-chloro-N-[(1S)-1-[[(1S)-1-cyano-2-[(3S)-2-oxo-3-piperidyl]ethyl]carbamoyl]-3,3-dimethyl-butyl]-1H-indole-2-carboxamide] was < 2 µM; that for `CC(C)(C)C[C@H](NC(=O)c1cc2c(Cl)cc(Cl)cc2[nH]1)C(=O)N[C@H](C#N)C[C@@H]1CCCNC1=O` [Compound 795, 4,6-dichloro-N-((S)-1-(((S)-1-cyano-2-((S)-2-oxopiperidin-3-yl)ethyl)amino)-4,4-dimethyl-1-oxopentan-2-yl)-1H-indole-2-carboxamide] was < 2 µM.
Same read-out and setting: the value for `COc1ccc2[nH]c(C(=O)N[C@@H](CC(C)(C)C)C(=O)N[C@H](C#N)C[C@@H]3CCCNC3=O)cc2c1Cl` [Compound 808, 4-chloro-N-[(1S)-1-[[(1S)-1-cyano-2-[(3S)-2-oxo-3-piperidyl]ethyl]carbamoyl]-3,3-dimethyl-butyl]-5-methoxy-1H-indole-2-carboxamide] was < 2 µM.
`COc1cc(Cl)c2[nH]c(C(=O)N[C@@H](CC(C)(C)C)C(=O)N[C@H](C#N)C[C@@H]3CCCNC3=O)cc2c1` [Compound 810, 7-chloro-N-[(1S)-1-[[(1S)-1-cyano-2-[(3S)-2-oxo-3-piperidyl]ethyl]carbamoyl]-3,3-dimethyl-butyl]-5-methoxy-1H-indole-2-carboxamide]: the EC50 is < 2 µM.
For the compound `N#C[C@H](C[C@@H]1CCCNC1=O)NC(=O)[C@H](CC1CC1)NC(=O)c1cc2c(Cl)cccc2[nH]1` [Compound 812, 4-chloro-N-[(1S)-2-[[(1S)-1-cyano-2-[(3S)-2-oxo-3-piperidyl]ethyl]amino]-1-(cyclopropylmethyl)-2-oxo-ethyl]-1H-indole-2-carboxamide], the EC50 is < 2 µM.
With `CC(C)(C)C[C@H](NC(=O)c1cc2c(F)cccc2[nH]1)C(=O)N[C@H](C#N)C[C@@H]1CCCNC1=O` [Compound 816], the EC50 was > 30 µM.
As to `COc1ccc(F)c2[nH]c(C(=O)N[C@@H](CC3CC3)C(=O)N[C@H](C#N)C[C@@H]3CCCNC3=O)cc12` [Compound 820, N-((S)-1-(((S)-1-cyano-2-((S)-2-oxopiperidin-3-yl)ethyl)amino)-3-cyclopropyl-1-oxopropan-2-yl)-7-fluoro-4-methoxy-1H-indole-2-carboxamide], the EC50 is < 2 µM.
`N#C[C@H](C[C@@H]1CCCNC1=O)NC(=O)[C@H](CC1CC1)NC(=O)c1cc2c(Cl)c(F)ccc2[nH]1` [Compound 822, 4-chloro-N-[(1S)-2-[[(1S)-1-cyano-2-[(3S)-2-oxo-3-piperidyl]ethyl]amino]-1-(cyclopropylmethyl)-2-oxo-ethyl]-5-fluoro-1H-indole-2-carboxamide]: the 50% effective concentration (EC50) was < 2 µM.
Consider `N#C[C@H](C[C@@H]1CCCNC1=O)NC(=O)[C@H](CC1CC1)NC(=O)c1cc2c(Cl)cc(F)cc2[nH]1` [Compound 824, 4-chloro-N-[(1S)-2-[[(1S)-1-cyano-2-[(3S)-2-oxo-3-piperidyl]ethyl]amino]-1-(cyclopropylmethyl)-2-oxo-ethyl]-6-fluoro-1H-indole-2-carboxamide], for which the EC50 was < 2 µM.
As to `N#C[C@H](C[C@@H]1CCCNC1=O)NC(=O)[C@H](CC1CC1)NC(=O)c1cc2c(Cl)ccc(F)c2[nH]1` [Compound 826], the EC50 was < 2 µM.
Consider `N#C[C@H](C[C@@H]1CCCNC1=O)NC(=O)[C@H](CC1CC1)NC(=O)c1cc2ccc(F)c(Cl)c2[nH]1` [Compound 828, 7-chloro-N-[(1S)-2-[[(1S)-1-cyano-2-[(3S)-2-oxo-3-piperidyl]ethyl]amino]-1-(cyclopropylmethyl)-2-oxo-ethyl]-6-fluoro-1H-indole-2-carboxamide], for which the EC50 was < 2 µM.
Same read-out and setting: to `N#C[C@H](C[C@@H]1CCCNC1=O)NC(=O)[C@H](CC1CC1)NC(=O)c1cc2cc(F)cc(Cl)c2[nH]1` [Compound 830, 7-chloro-N-((S)-1-(((S)-1-cyano-2-((S)-2-oxopiperidin-3-yl)ethyl)amino)-3-cyclopropyl-1-oxopropan-2-yl)-5-fluoro-1H-indole-2-carboxamide] belongs < 2 µM.
